# Assay results: patent US6395752B1, “Method of treating depression using 1-threo-methylphenidate” (Pharmaquest Limited, priority 1999, dated 2002)
# Marks after values point to notes of the source that are not given here.
# Key:
# [1] = oral, cited from earlier work
# [2] = Profile of Mood State (POMS) rating scale, randomized 4-phase cross-over study, intravenous administration; type: in vivo, healthy male volunteers; details: i.v.; for Vigor ratings: POMS Vigor-Activity; for Rank order of ratings for Tension, Depression and Anger: three components of Dysphoria, same order in each case
# Source text: The Profile of Mood State (POMS) rating scale was used to estimate pharmacodynamic factors including Anger-Hostility, Confusion-Bewilderment, Depression-Dejection, Fatigue-Inertia, Tension-Anxiety, and Vigor-Activity. In addition composite scores were also produced for “Energy” (“Vigor-Activity” minus “Fatigue-Inertia”) and “Dysphoria” (“Anger-Hostility” plus “Depression-Rejection” plus “Tension-Anxiety”).
# [3] = plasma; i.v. 10 mg d1-MPH; 11 healthy male volunteers; mean ± SD; cited from earlier work
# [4] = after oral administration of the racemic drug; cited from earlier work
Structure (SMILES),"Hamilton depression scale decrease, subjects with minimal decrease ([1]; 3 subjects) [%]","Hamilton depression scale decrease, subjects with marked decrease ([1]; 7 subjects) [%]","Benefit in depressed patients ([1]; older, medically ill depressed patients, n=16)",Vigor ratings ([2]; healthy male volunteers),"Effect on ""Energy"" composite score ([2]; healthy male volunteers)","Rank order of ratings for Tension, Depression and Anger [2]",POMS rating for Fatigue-Inertia ([2]; healthy male volunteers),t1/2 [3],Absolute bioavailability (F) [4]
"COC(=O)[C@H](c1ccccc1)[C@H]1CCCCN1 [d1-MPH, d1-threo-methylphenidate]",< 30,> 55,statistically and clinically significant,significantly different from those for 1-MPH and placebo,enhanced,1-MPH<placebo<d1-MPH<d-MPH,,,
"COC(=O)[C@H](c1ccccc1)[C@H]1CCCCN1 [d-MPH, d-threo-methylphenidate]",,,,significantly different from those for 1-MPH and placebo,not strongly energizing,1-MPH<placebo<d1-MPH<d-MPH,significantly different from those after 1-MPH,,
"COC(=O)[C@@H](c1ccccc1)[C@@H]1CCCCN1 [1-MPH, 2S,2′S-methyl 2-phenyl-2-(2′-piperidyl) acetate]",,,,,,1-MPH<placebo<d1-MPH<d-MPH,,3.61 ± 1.12^b,0.05
